From patent US7273848B2, “Apolipoprotein A-I agonists and their use to treat dyslipidemic disorders” (priority 1997, dated 2007)
Non-standard residues stand in square brackets, D forms with d. Residues, ends and D or L forms follow the SMILES beside them. No end group written: not given here. Aib = CC(C)(N)C(=O)O

Target: T1, LCAT (purified from human plasma) (Homo sapiens, UniProt P04180)
T1 construct: from tissue; host or cells: human plasma
T1 sequence (P04180 25-440): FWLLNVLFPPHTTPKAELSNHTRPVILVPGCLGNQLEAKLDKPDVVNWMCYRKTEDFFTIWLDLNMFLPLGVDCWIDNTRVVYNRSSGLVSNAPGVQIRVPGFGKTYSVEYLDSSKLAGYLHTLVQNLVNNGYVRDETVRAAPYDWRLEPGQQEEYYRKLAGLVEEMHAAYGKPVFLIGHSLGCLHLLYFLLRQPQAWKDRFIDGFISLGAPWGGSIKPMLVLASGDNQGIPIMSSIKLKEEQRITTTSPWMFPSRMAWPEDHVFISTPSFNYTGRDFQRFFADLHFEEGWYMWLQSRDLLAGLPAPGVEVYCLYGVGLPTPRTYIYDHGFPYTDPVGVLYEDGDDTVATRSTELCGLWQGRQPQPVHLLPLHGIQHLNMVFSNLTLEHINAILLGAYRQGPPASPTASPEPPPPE
Experiment: LCAT activation assay
Type: biochemical
Conditions: LCAT activation as compared with native human ApoA-I (= 100%), equivalent masses
Protocol: The peptides synthesized as described in Section 6, supra, were analyzed in vitro for their ability to activate LCAT. In the LCAT assay, substrate vesicles (small unilamellar vesicles or “SUVs”) composed of egg phophatidylcholine (EPC) or 1-Palmitoyl-2-oleyl-phosphatidyl-choline (POPC) and radiolabelled cholesterol are preincubated with equivalent masses either of peptide or ApoA-I (isolated from human plasma). The reaction is initiated by addition of LCAT (purified from human plasma). Native ApoA-I, which was used as positive control, represents 100% activation activity. “Specific activity” (i.e., units of activity (LCAT activation)/unit of mass) of the peptides can be calculated as the concentration of peptide that achieves maximum LCAT activation. For example, a series of concentrations of the peptide (e.g., a limiting dilution) can be assayed to determine the “specific activity” for the peptide—the concentration which achieves maximal LCAT activation (i.e., percentage conversion of cholesterol to cholesterol ester) at a specific timepoint in the assay (e.g., 1 hr.). When plotting percentage conversion of cholesterol at, e.g., 1 hr., against the concentration of peptide used, the “specific activity” can be identified as the concentration of peptide that achieves a plateau on the plotted curve.
The vesicles used in the LCAT assay are SUVs composed of egg phosphatidylcholine (EPC) or 1-palmitoyl-2-oleyl-phosphatidylcholine (POPC) and cholesterol with a molar ratio of 20:1. To prepare a vesicle stock solution sufficient for 40 assays, 7.7 mg EPC (or 7.6 mg POPC; 10 μmol), 78 μg (0.2 μmol) 4-^14C-cholesterol, 116 μg cholesterol (0.3 μmol) are dissolved in 5 ml xylene and lyophilized. Thereafter 4 ml of assay buffer is added to the dry powder and sonicated under nitrogen atmosphere at 4° C. Sonication conditions: Branson 250 sonicator, 10 mm tip, 6×5 minutes; Assay buffer: 10 mM Tris, 0.14 M NaCl, 1 mM EDTA, pH 7.4). The sonicated mixture is centrifuged 6 times for 5 minutes each time at 14,000 rpm (16,000×g) to remove titanium particles. The resulting clear solution is used for the enzyme assay.
For the LCAT purification, dextran sulfate/Mg^2+ treatment of human plasma is used to obtain lipoprotein deficient serum (LPDS), which is sequentially chromatographed on Phenylsepharose, Affigelblue, ConcanavalinA sepharose and anti-ApoA-I affinity chromatography, as summarized for a representative purification in TABLE IX, below: […]

Row | Molecule | ACTIVITY (%) LCAT [%]
1 | PVLDLFRELLNELWQKLK [compound 219] | 24
2 | CC(C)C[C@H](NC(=O)[C@H](C)NC(=O)[C@H](CCC(=O)O)NC(=O)[C@H](CC(C)C)NC(=O)C(C)(C)NC(=O)[C@H](CCC(=O)O)NC(=O)[C@H](CC(N)=O)NC(=O)[C@H](CC(C)C)NC(=O)[C@H](CCCCN)NC(=O)[C@H](CCC(=O)O)NC(=O)[C@H](CCCNC(=N)N)NC(=O)[C@H](Cc1ccccc1)NC(=O)[C@H](CCC(=O)O)NC(=O)[C@H](CC(=O)O)NC(=O)[C@@H](N)CC(C)C)C(=O)N[C@@H](CCCCN)C(=O)N[C@@H](CCC(N)=O)C(=O)N[C@@H](CCCCN)C(=O)N[C@@H](CC(C)C)C(=O)N[C@@H](CCCCN)C(=O)O [compound 82, ~~LDEFREKLNEXLEALKQKLK] (H-LDEFREKLNE[Aib]LEALKQKLK-OH) | 8
3 | PVLDEFRELLNELLEALKQKLK [compound 79] | 9
4 | CC(C)C[C@H](NC(=O)[C@H](C)NC(=O)[C@H](CCC(=O)O)NC(=O)[C@H](CC(C)C)NC(=O)C(C)(C)NC(=O)[C@H](CCC(=O)O)NC(=O)[C@H](CC(N)=O)NC(=O)[C@H](CC(C)C)NC(=O)[C@H](CCCCN)NC(=O)[C@H](Cc1c[nH]c2ccccc12)NC(=O)[C@H](CCCNC(=N)N)NC(=O)[C@H](Cc1ccccc1)NC(=O)[C@H](CCC(=O)O)NC(=O)[C@H](CC(=O)O)NC(=O)[C@H](CC(C)C)NC(=O)[C@@H](NC(=O)[C@@H]1CCCN1)C(C)C)C(=O)N[C@@H](CCCCN)C(=O)N[C@@H](CCC(N)=O)C(=O)N[C@@H](CCCCN)C(=O)N[C@@H](CC(C)C)C(=O)N[C@@H](CCCCN)C(=O)O [compound 61, PVLDEFRWKLNEXLEALKQKLK] (H-PVLDEFRWKLNE[Aib]LEALKQKLK-OH) | 16
5 | PVLELFDNLLERLLDALQKKLK [compound 179] | 8
6 | CC(C)C[C@H](NC(=O)[C@H](C)NC(=O)[C@H](CCC(=O)O)NC(=O)[C@H](CC(C)C)NC(=O)C(C)(C)NC(=O)[C@H](CCC(=O)O)NC(=O)[C@H](CC(N)=O)NC(=O)[C@H](CC(C)C)NC(=O)[C@H](CCCCN)NC(=O)[C@H](CCC(=O)O)NC(=O)[C@H](CCCNC(=N)N)NC(=O)[C@H](Cc1ccccc1)NC(=O)[C@H](CCCCN)NC(=O)[C@H](CC(=O)O)NC(=O)[C@H](CC(C)C)NC(=O)[C@@H](NC(=O)[C@@H]1CCCN1)C(C)C)C(=O)N[C@@H](CCCCN)C(=O)N[C@@H](CCC(N)=O)C(=O)N[C@@H](CCCCN)C(=O)N[C@@H](CC(C)C)C(=O)N[C@@H](CCCCN)C(=O)O [compound 74, PVLDKFREKLNEXLEALKQKLK] (H-PVLDKFREKLNE[Aib]LEALKQKLK-OH) | 10
7 | PVLELFENLLEKLLDALQKKLK [compound 169] | 17
8 | PVLDEFREKLNELLEALKQKLK [compound 84] | 7
9 | PVLELFEQLLEKLLDALQKKLK [compound 168] | 17
10 | Ac-GVLDLFRELLEELKQKLK-NH2 [compound 198] | 80
11 | Ac-PVLDLLRELLEELKQKLK-NH2 [compound 191] | 100
12 | PVLDLFDNLLDRLLDLLNKKLK [compound 173] | 15
13 | PVLELFKELLQELLEALKQKLK [compound 17] | 59
14 | PVLDLFKELLQELLEALKQKLK [compound 11] | 72
15 | CC(C)C[C@H](NC(=O)[C@H](C)NC(=O)[C@H](CCCCN)NC(=O)[C@H](CC(C)C)NC(=O)C(C)(C)NC(=O)[C@H](CCC(=O)O)NC(=O)[C@H](CC(N)=O)NC(=O)[C@H](CC(C)C)NC(=O)[C@H](CCCCN)NC(=O)[C@H](CCC(=O)O)NC(=O)[C@H](CCCNC(=N)N)NC(=O)[C@H](Cc1ccccc1)NC(=O)[C@H](CCC(=O)O)NC(=O)[C@H](CC(=O)O)NC(=O)[C@H](CC(C)C)NC(=O)[C@@H](NC(=O)[C@@H]1CCCN1)C(C)C)C(=O)N[C@@H](CCCCN)C(=O)N[C@@H](CCC(N)=O)C(=O)N[C@@H](CCCCN)C(=O)N[C@@H](CC(C)C)C(=O)N[C@@H](CCCCN)C(=O)O [compound 93, PVLDEFREKLNEXLKALKQKLK] (H-PVLDEFREKLNE[Aib]LKALKQKLK-OH) | 5
16 | Ac-PVLELFKELLEELKQKLK-NH2 [compound 195] | 87
17 | DWFKAFYDKVFEKFKEFF [peptide 241, reference compound] | 8
18 | PVLELFERLLDELLNALQKKLK [compound 86] | 7
19 | CC(C)C[C@H](NC(=O)CNC(=O)[C@H](CCC(=O)O)NC(=O)[C@H](CC(N)=O)NC(=O)[C@H](CC(C)C)NC(=O)[C@H](CC(C)C)NC(=O)[C@H](CCC(=O)O)NC(=O)[C@H](CCCNC(=N)N)NC(=O)[C@H](Cc1ccccc1)NC(=O)[C@H](CC(C)C)NC(=O)[C@H](CC(=O)O)NC(=O)[C@H](CC(C)C)NC(=O)[C@@H](NC(=O)[C@H]1CCCN1)C(C)C)C(=O)N[C@@H](CCC(=O)O)C(=O)N[C@@H](C)C(=O)N[C@@H](CC(C)C)C(=O)N[C@@H](CCCCN)C(=O)N[C@@H](CCC(N)=O)C(=O)N[C@@H](CCCCN)C(=O)N[C@@H](CC(C)C)C(=O)N[C@@H](CCCCN)C(=O)O [compound 19] (H-[dP]VLDLFRELLNEGLEALKQKLK-OH) | 58

Test system: not listed separately
Experiment: Circular dichroism helicity determination
Type: physicochemical
Conditions: percent helicity; 5 μM peptide, 90% vol TFE, 37° C.
Protocol: Far UV circular dichroism spectra were recorded between 190 and 260 nm (in 0.5 nm or 0.2 nm increments) with a AVIV62DS spectrometer (AVIV Associates, Lakewood, N.J., USA) equipped with a thermoelectric cell holder and sample changer. The instrument was calibrated with (+)-10-[…]. Between one and three scans were collected for each sample, using 10 cm, 5 cm, 1 cm and 0.1 cm path length quartz Suprasil cells, respectively, for peptide concentrations of 10^−7 M to 10^−4 M. The bandwidth was fixed at 1.5 nm and the scan speed to 1s per wavelength step. The reported data are the mean of at least 2 or 3 independent measurements.
After background substraction, spectra were converted to molar ellipticity (θ) per residue in deg. […] dmol^−1. The peptide concentration was determined by amino acid analysis and also by absorption spectrometry on a Perkin Elmer Lambda 17 UV/Visible spectrophotometer when the peptide contained a chromophore (tryptophane, dansyl, naphtylalanine).
CD spectra were obtained with free, unbound peptide (5 μM in 5 mM phosphate buffer, pH 7.4); with peptide-SUV complexes (20:1 EPC:Chol., Ri=30 and Ri=50); with peptide-micelle complexes (1-myristoyl-2-hydroxy-sn-glycero-3-phosphatidyl choline, Ri=100); and with free, unbound peptide in the presence of 2,2,2-trifluoroethanol (TFE) (5 μM peptide, 90% vol TFE).
The SUVs were obtained by dispersing the lipids (10 mM, 20:1 EPC:Chol., Avanti Polar Lipids, AL) in phosphate buffer (5 mM, pH 7.4) with bubbling N2 for 5 min., followed by sonication (1.5 hr.) in a bath sonicator. The homogeneity of the preparation was checked by FPLC.
The micelles were obtained by dispersing the lipid (6 mM 1-myristoyl-2-hydroxy-sn-glycero-3-phosphatidyl choline, Avanti Polar Lipids, AL) in phosphate buffer (5 mM, pH 7.4) with bubbling N2 for 5 min., followed by vortexing.
To obtain the peptide-SUV complexes, SUVs were added to the peptide (5 μM in 5 mM phosphate buffer, pH 7.4) at a phospholipid-peptide molar ratio (Ri) of 30 or 50.
To obtain the peptide-micelle complexes, micelles were added to the peptide (5 μM in 5 mM phosphate buffer, pH 7.4) at a Ri of 100.
All spectra were recorded at 37° C.
The degree of helicity of the peptides in the various conditions was determined from the mean residue ellipticity at 222 nm (Chen et al., 1974, Biochemistry 13:3350-3359) or by comparing the CD spectra obtained to reference spectra available on databases (16 helical reference spectra from Provencher & Glockner, 1981, Biochemistry 20:33-37; denatured protein reference spectra from Venyaminov et al., 1993, Anal. Biochem. 214:17-24) using the CONTIN curve-fitting algorithm version 2DP, CD-1 pack (August 1982) (Provencher, 1982, Comput. Phys. Commun. 27:213-227, 229-242). Acceptable fit was determined using the statistical analysis methodology provided by the CONTIN algorithm. The error of all methods was ±5% helicity.

Row | Molecule | He (%) TFE [%]
20 | Ac-PVLDEFREKLNEELEALKQKLK-NH2 [peptide 75, reference compound] | 55

Same assay, conditions: percent helicity; free, unbound peptide 5 μM in 5 mM phosphate buffer, pH 7.4, 37° C.

Row | Molecule | He (%) free [%]
21 | Ac-PVLDEFREKLNEELEALKQKLK-NH2 [peptide 75, reference compound] | 18

Same assay, conditions: percent helicity; peptide-SUV complexes (20:1 EPC:Chol., Ri=30 and Ri=50), 37° C.

Row | Molecule | He (%) SUVs [%]
22 | Ac-PVLDEFREKLNEELEALKQKLK-NH2 [peptide 75, reference compound] | 23

Same assay, conditions: percent helicity; peptide-micelle complexes, Ri=100, 37° C.

Row | Molecule | He (%) mics [%]
23 | Ac-PVLDEFREKLNEELEALKQKLK-NH2 [peptide 75, reference compound] | 28
